Reference: patent US7772271B2 (priority 2004, dated 2010)

Row | melting point | SMILES
1 | 218 to 224 °C | C[C@@H](OC(=O)Nc1ccc(-c2c(C#N)c3ccc(OCS(C)(=O)=O)cc3n2C2CCCC2)cc1)C1CC1 [Compound 3068]
2 | 207 to 211 °C | CCOc1ccc2c(C#N)c(-c3ccc(NC(=O)OC4CCN(C(=O)OC(C)(C)C)CC4)cc3)n(C3CCC3)c2c1 [Compound 3069]
3 | 237 to 242 °C | CCOc1ccc2c(C#N)c(-c3ccc(NC(=O)OC4CCN(S(=O)(=O)CC)CC4)cc3)n(C3CCC3)c2c1 [Compound 3070]
4 | 236 to 241 °C | CCOc1ccc2c(C#N)c(-c3ccc(NC(=O)OC4CCN(S(=O)(=O)C5CC5)CC4)cc3)n(C3CCC3)c2c1 [Compound 3071]
5 | 211 to 215 °C | CCOc1ccc2c(C#N)c(-c3ccc(NC(=O)OC4CCN(C(C)=O)CC4)cc3)n(C3CCC3)c2c1 [Compound 3072]
6 | 185 to 190 °C | CCOc1ccc2c(C#N)c(-c3ccc(NC(=O)OC4CCN(C(=O)OCCOC)CC4)cc3)n(C3CCC3)c2c1 [Compound 3073]
7 | 180 to 182 °C | CCOc1ccc2c(c1)c(C#N)c(-c1ccc(N(S(=O)(=O)CC)S(=O)(=O)CC)cc1)n2CC1CC1 [Compound 3078]
8 | 194 to 195 °C | CCOc1ccc2c(C#N)c(-c3ccc(NC(=O)OCCS(C)(=O)=O)cc3)n(C3CCC3)c2c1 [Compound 3079]
9 | 172 to 177 °C | CSc1nccc(Oc2ccc3c(C#N)c(-c4ccc(NC(=O)O[C@H](C)C5CC5)cc4)n(C4CCC4)c3c2)n1 [Compound 3089]
10 | 196 to 201 °C | CSc1nccc(Oc2ccc3c(C#N)c(-c4ccc(NC(=O)OC(C)C)cc4)n(C4CCC4)c3c2)n1 [Compound 3090]
11 | 112 to 119 °C | CCOc1ccc2c([N+](=O)[O-])c(-c3ccc(NC(=O)OC(C)C)cc3)n(CC3CC3)c2c1[N+](=O)[O-] [Compound 3093]

Continued, molecule first:

Row | SMILES | melting point
12 | CCOc1ccc2c(C#N)c(-c3ccc(S(=O)(=O)N4CC[C@H](O)C4)cc3)n(C3CCC3)c2c1 [Compound 3085] | 195 to 196 °C
13 | CCOc1ccc2c(C#N)c(-c3ccc(S(=O)(=O)N4CCC(O)C4)cc3)n(C3CCC3)c2c1 (stereo not shown) [Compound 3086] | 194 to 196 °C
14 | N#Cc1c(-c2ccc(NC(=O)Nc3n[nH]c(C4CC4)n3)cc2)n(C2CCC2)c2cc(Oc3ncccn3)ccc12 [Compound 3087] | 275 °C (dec.)
15 | N#Cc1c(-c2ccc(NS(=O)(=O)c3ccccc3)cc2)n(C2CCC2)c2cc(OC3CCOCC3)ccc12 [Compound 3091] | 231 to 233 °C
16 | CSc1nccc(Oc2ccc3c(C#N)c(-c4ccc(NC(=O)NC(C)C)cc4)n(C4CCC4)c3c2)n1 [Compound 3092] | 238 to 243 °C
17 | CCCS(=O)(=O)Nc1ccc(-c2c(C#N)c3cc(C(=O)N(C)C)ccc3n2C2CCC2)cc1 [Compound 3094] | 236 to 237 °C
18 | CCCS(=O)(=O)Nc1ccc(-c2c(C#N)c3cc(C(=O)N(CC)CC)ccc3n2C2CCC2)cc1 [Compound 3095] | 133 to 134 °C
19 | CCCS(=O)(=O)Nc1ccc(-c2c(C#N)c3cc(C(=O)N(C)CC)ccc3n2C2CCC2)cc1 [Compound 3096] | 138 to 139 °C
20 | CCCS(=O)(=O)Nc1ccc(-c2c(C#N)c3cc(C(=O)N4CCCC4)ccc3n2C2CCC2)cc1 [Compound 3097] | 200 to 202 °C
21 | CCCS(=O)(=O)Nc1ccc(-c2c(C#N)c3cc(C(=O)N4CCOCC4)ccc3n2C2CCC2)cc1 [Compound 3098] | 128 to 129 °C
22 | N#Cc1c(-c2ccc(N)cc2)n(C2CCC2)c2cc(Oc3nccc(N4CCOCC4)n3)ccc12 [Compound 3099] | 149 to 152 °C
23 | C[C@@H](OC(=O)Nc1ccc(-c2c(C#N)c3ccc(C(=O)N4CCN(C)CC4)cc3n2C2CCC2)cc1)C1CC1 [Compound 3106] | 104 to 106 °C
24 | C[C@@H](OC(=O)Nc1ccc(-c2c(C#N)c3ccc(C(=O)N4CCOCC4)cc3n2C2CCC2)cc1)C1CC1 [Compound 3107] | 156 to 158 °C
25 | CC1CCN(C(=O)c2ccc3c(C#N)c(-c4ccc(NC(=O)O[C@H](C)C5CC5)cc4)n(C4CCC4)c3c2)CC1 [Compound 3108] | 150 to 153 °C
